# Read-outs that look alike come from different tables or passages of the source.
# Experiments:
# [1] = target: hLPAR1 (human lysophosphatidic acid receptor 1, Accession No.: NM_001401.4) (Homo sapiens, UniProt Q92633); assay: cell-based; conditions: Table 1; FLIPR method, CHO-K1 cells overexpressing hLPAR1; read-out: LPAR1 inhibitory activity IC50
# Protocol: The antagonist properties of the compounds in the present disclosure were determined using the FLIPR (Fluorometric Imaging Plate Reader) method in CHO-K1 cells (Chinese Hamster Ovary cells K1, ATCC) overexpressing hLPAR1 (human lysophosphatidic acid receptor 1, Accession No.: NM_001401.4).
# CHO-K1 cells stably expressing hLPAR1 were placed in a cell culture incubator at 37°C with 5% CO2 and cultured in F-12 medium containing 10% FBS (fetal bovine serum, Gibco, 10099-141), 1% penicillin-streptomycin (Gibco, 15140-122), and 0.4 mg/mL Hygromycin B (Gibco, 10687010). 18-24 hours before the FLIPR experiment, the cells were seeded into a 96-well plate at a density of 250,000 cells/mL (25,000 cells/well) and incubated overnight in the cell culture incubator. On the day of the experiment, the medium was removed, and the cells were washed with FLIPR buffer (2.5 mM probenecid (Thermo, P36400), 1.3 mM CaCl2, 3.3 mM Na2CO3, 1 mM MgSO4, 20 mM HEPES (Invitrogen, 15630080), 1× HBSS (Invitrogen, 14065056), 0.1% BSA (BioSharp, 70080030)). 75 µL of […] Fluo-4 AM fluorescent dye (Thermo, F14202) was added to each well and incubated for 1.0 hour at 37°C for dye loading. The 96-well plate was then washed once with buffer, and 50 µL of buffer containing the test compound or vehicle was added to each well, followed by incubation at room temperature for 30 min. The cell plate was then placed into the FLIPR for baseline fluorescence measurement (excitation wavelength at 485 nm, emission wavelength at 525 to 535 nm). Subsequently, 50 µL/well of agonist (final concentration 1 µM oleoyl-L-α-lysophosphatidic acid sodium salt (Sigma, L7260)) or vehicle (ultrapure water) was added, and fluorescence values were measured at 1-second intervals for 2 min. Finally, the output fluorescence counts were analyzed using GraphPad Prism 9.0 software log(inhibitor) vs. response--Variable slope (four parameters) equation to calculate IC50 values.
# Table 1: Inhibitory activity data of compounds against LPAR1
# [2] = Pharmacokinetic study in rats (oral gavage and tail vein injection, plasma LC-MS/MS); assay type: in vivo; conditions: rat; for Cmax: read-out: Cmax
# Protocol: Male SPF-grade SD rats (Beijing Vital River Laboratory Animal Technology Co., Ltd.) with a body weight range of 200 to 250 g were used. After acclimatization, the rats were administered a clear solution of the compound of the present disclosure via oral gavage (Po, fasted overnight before administration with free access to water, food returned 4 hours after administration) and tail vein injection (Iv, free access to food and water throughout the administration). Blood samples were collected from the orbital venous plexus/jugular vein of rats at specified time points after administration (blood collection time points for the PO group: 0.167, 0.5, 1, 2, 4, 6, 8, and 24 h; for the IV group: 0.033, 0.167, 1, 2, 4, 6, 8, and 24 h). The concentration of compounds in plasma was detected by LC-MS/MS (AB SCIEX Qtrap4500). Data were analyzed using WinNonlin (version 5.2.1 Pharsight, Mountain View, CA) with a non-compartmental model to obtain PK parameters (including Cmax, C0, Tmax, AUClast, AUCinf, T1/2, etc.).
# Table 3: Results of in vivo pharmacokinetic studies of compounds of the present disclosure in rats
# The vehicle for the Po group compound was 5% DMSO + 5% ethanol + 60% PEG400 + 30% normal saline; the vehicle for the Iv group compound was 10% ethanol + 20% pure water + 70% PEG400 solution.
# hLPAR1 (human lysophosphatidic acid receptor 1, Accession No.: NM_001401.4), sequence (Q92633 whole entry): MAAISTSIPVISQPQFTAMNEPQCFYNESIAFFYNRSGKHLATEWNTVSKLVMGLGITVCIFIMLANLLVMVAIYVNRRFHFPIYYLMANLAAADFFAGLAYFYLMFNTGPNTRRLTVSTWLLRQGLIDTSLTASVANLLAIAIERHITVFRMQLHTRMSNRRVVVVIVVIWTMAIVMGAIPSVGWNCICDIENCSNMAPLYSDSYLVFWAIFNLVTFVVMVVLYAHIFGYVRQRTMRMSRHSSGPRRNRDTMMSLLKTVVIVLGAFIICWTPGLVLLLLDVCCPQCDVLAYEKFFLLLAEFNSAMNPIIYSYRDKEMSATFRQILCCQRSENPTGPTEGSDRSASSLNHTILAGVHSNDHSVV
"half-life ([2]; male, SD, iv, 1 mg/kg) [h]","half-life ([2]; male, SD, po, 1 mg/kg) [h]","AUC(0-t) ([2]; male, SD rats, Iv, 1 mg/kg) [ng·h/mL]","Cmax ([2]; male, SD rats, Iv, 1 mg/kg) [ng/mL]","AUC(0-t) ([2]; male, SD rats, Po, 1 mg/kg) [ng·h/mL]","Cmax ([2]; male, SD rats, Po, 1 mg/kg) [ng/mL]",SMILES,"AUC(0-t) ([2]; SD rats, Iv, 1 mg/kg) [ng·h/mL]","half-life ([2]; SD rats, Iv, 1 mg/kg) [h]","Cmax ([2]; SD rats, Iv, 1 mg/kg) [ng/mL]","AUC(0-t) ([2]; SD rats, Po, 1 mg/kg) [ng·h/mL]","half-life ([2]; SD rats, Po, 1 mg/kg) [h]","Cmax ([2]; SD rats, Po, 1 mg/kg) [ng/mL]",further results
,,,,,,"Cc1nc(-c2nnn(C)c2NC(=O)O[C@H](C)c2ccccc2)ccc1C#C[C@@H]1CCCC[C@H]1C(=O)O (mixture of isomers) [027-A, trans-2-((2-methyl-6-(1-methyl-5-((((R)-1-phenylethoxy)carbonyl)amino)-1H-1,2,3-triazol-4-yl)pyridin-3-yl)ethynyl)cyclohexane-1-carboxylic acid]",,,,,,,IC50 [1]: 2.6 nM
,,,,,,"Cc1nc(-c2nnn(C)c2NC(=O)O[C@H](C)c2ccccc2)ccc1C#C[C@@H]1CCCC[C@H]1C(=O)O (mixture of isomers) [027-B, trans-2-((2-methyl-6-(1-methyl-5-((((R)-1-phenylethoxy)carbonyl)amino)-1H-1,2,3-triazol-4-yl)pyridin-3-yl)ethynyl)cyclohexane-1-carboxylic acid]",,,,,,,IC50 [1]: 49.2 nM
10.4,9.97,5000 to 10000,800 to 5000,5000 to 10000,200 to 800,"Cc1nc(-c2nnn(C)c2NC(=O)O[C@H](C)CC(C)(F)F)ccc1C#C[C@@H]1CC[C@H]1C(=O)O (mixture of isomers) [compound 213, trans-2-((6-(5-(((((R)-4,4-difluoropentan-2-yl)oxy)carbonyl)amino)-1-methyl-1H-1,2,3-triazol-4-yl)-2-methylpyridin-3-yl)ethynyl)cyclobutane-1-carboxylic acid]",,,,,,,
4.78,3.76,5000 to 10000,800 to 5000,5000 to 10000,800 to 5000,"CCC[C@@H](C)OC(=O)Nc1c(-c2ccc(C#C[C@@H]3C[C@H]3C(=O)O)c(C)n2)nnn1C (mixture of isomers) [compound 224, trans-2-((2-methyl-6-(1-methyl-5-(((((R)-pentan-2-yl)oxy)carbonyl)amino)-1H-1,2,3-triazol-4-yl)pyridin-3-yl)ethynyl)cyclopropane-1-carboxylic acid]",,,,,,,
,,,,,,Cc1nc(-c2nnn(C)c2NC(=O)OC(C)C23CC(C2)C3)ccc1C#CC1(CC(=O)O)CC1 (racemic) [compound 260],5000 to 10000,8.44,800 to 5000,5000 to 10000,9.12,200 to 800,
6.07,4.58,1200 to 3000,800 to 5000,1200 to 3000,200 to 800,"Cc1nc(-c2nnn(C)c2COC(=O)N(C)CCC(C)(F)F)ccc1C#C[C@@H]1CCC[C@H]1C(=O)O (racemic) [compound 282, trans-2-((6-(5-((((3,3-difluorobutyl)(methyl)carbamoyl)oxy)methyl)-1-methyl-1H-1,2,3-triazol-4-yl)-2-methylpyridin-3-yl)ethynyl)cyclopentane-1-carboxylic acid]",,,,,,,
,,,,,,Cc1nc(-c2nnn(C)c2NC(=O)OC(C)CC(C)(F)F)ccc1C#CC1(CC(=O)O)CC1 (racemic) [compound 311],5000 to 10000,9.33,800 to 5000,3000 to 5000,8.49,200 to 800,
,,,,,,Cc1nc(-c2nnn(C)c2COC(=O)N(C)CCC(C)(F)F)ccc1C#CC1CCC1C(=O)O (racemic) [compound 359],,,,,,,"AUC(0-t) ([2]; in vivo, SD rats, Iv, 1 mg/kg): 1200 to 3000 ng·h/mL; Cmax ([2]; in vivo, SD rats, Iv, 1 mg/kg): 800 to 5000 ng/mL; AUC(0-t) ([2]; in vivo, SD rats, Po, 1 mg/kg): 1200 to 3000 ng·h/mL; Cmax ([2]; in vivo, SD rats, Po, 1 mg/kg): 200 to 800 ng/mL; half-life ([2]; in vivo, iv, 1 mg/kg, SD rats): 7.63 h; half-life ([2]; in vivo, po, 1 mg/kg, SD rats): 6.24 h"
,,,,,,Cc1nc(-c2nnn(C)c2COC(=O)N(C)CC2CCC2)ccc1C#CC1CC1C(=O)O (racemic) [compound 361],1200 to 3000,3.03,800 to 5000,1200 to 3000,2.53,200 to 800,
,,,,,,"Cc1nc(-c2nnn(C)c2NC(=O)OC(C)CCCF)ccc1C#CC1(CC(=O)O)CC1 (single isomer, unassigned) [280-B]",,,,,,,"AUC(0-t) ([2]; in vivo, SD rats, Iv, 1 mg/kg): 5000 to 10000 ng·h/mL; Cmax ([2]; in vivo, SD rats, Iv, 1 mg/kg): 800 to 5000 ng/mL; AUC(0-t) ([2]; in vivo, SD rats, Po, 3 mg/kg): 10000 to 20000 ng·h/mL; Cmax ([2]; in vivo, SD rats, Po, 3 mg/kg): 800 to 5000 ng/mL; half-life ([2]; in vivo, iv, 1 mg/kg, SD rats): 6.47 h; half-life ([2]; in vivo, po, 3 mg/kg, SD rats): 6.57 h"
